From US20100074897A1, “Methods and Compositions related to HIF-1 alpha” (University of Utah Research Foundation, priority 2006, published 2010) come the findings set out here.

The subject of experiment [1] is U-2 OS cells. As to the kind of experiment: immunofluorescent staining of γ-H2AX foci (DNA DSBs). The following applies: U-2 OS cells transiently expressing PAS-B variants. The format is cell-based. The procedure:
To ascertain the functional relevance of NBS1 repression by hypoxia, the extent of DNA damage was assessed by immunofluorescent staining of γ-H2AX foci, a most sensitive method for quantifying DNA DSBs (Rogakou et al, 1998, 1999). […] Furthermore, results also show strikingly colocalized foci of γ-H2AX and 53BP1, the latter of which is known to interact with various DNA repair proteins including γ-H2AX in response to DSBs (Schultz et al, 2000). Thus, hypoxic cells experience DNA DSBs, presumably resulting from the NBS1 repression.
Immunofluorescence staining was performed essentially as described previously (Rogakou et al, 1999) with mouse anti-γ-H2AX antibody (Upstate) and rabbit anti-53BP1 (Novus Biologicals). Secondary antibodies were anti-mouse Alexa-546 and anti-rabbit Alexa-488 (Molecular Probes). Samples were mounted in antifade media, and were examined by fluorescent and laser-scanning confocal microscopy with a Nikon PCM 2000.

Experiment [2] deals with U-2 OS cells. Put plainly: tumor formation in a xenografted mouse model. Format: in vivo. Particulars: athymic mice, subcutaneous injection of 1 million U-2 OS cells, within three weeks. An excerpt:
Female BALB/c-nu/nu mice were subjected to bilateral, subcutaneous injections in the back with 1 million of U-2 OS cells, or those expressing EYFP, HIF-1α PAS-B, or the HIF-1α PAS-B mutant. A total of ten mice were divided into two groups with one type of cells injected on one side and another on the other side.

The target in another experiment is T1, Sp1 (Oryctolagus cuniculus, UniProt G1SL61).
T1 construct: from tissue; host or cells: rabbit reticulocyte lysate (in vitro translation system)
Put plainly: anti-Sp1 immunoprecipitation of in vitro translated products. Format: binding, rabbit. The following applies: translated in rabbit reticulocyte lysate. As for the experimental part: Previously, it was shown that Myc displacement is mediated by the N-terminal HIF-1α (1-329), which competes with Myc for Sp1 binding in the MSH2 promoter (Koshiji et al, 2005). […] […] […] Of note, removal of part of the PAS-B from the C terminus (codon 299-329) destroyed Sp1 binding.
Immunoprecipitations and Western blot was performed essentially as described previously (Huang et al., 1998; Koshiji et al., 2005). In vitro translation and immunoprecipitations are described as before (Gu et al., 2001; Koshiji et al., 2005). […]

Experiment [3] relates to NBS1. As to the kind of experiment: NBS1 protein levels by immunoblot in U-2 OS cells expressing PAS-B variants. The format is cell-based. Particulars: forced expression in U-2 OS cells. The procedure:
Immunoprecipitations and Western blot was performed essentially as described previously (Huang et al., 1998; Koshiji et al., 2005). In vitro translation and immunoprecipitations are described as before (Gu et al., 2001; Koshiji et al., 2005). The wheat germ extract system was purchased from Promega. λ protein phosphatase (New England Biolabs) and resveratrol (Sigma) with indicated concentrations were added to the in vitro translated products before immunoprecipitations.
U-2 OS cells were transfected with the Nucleofector system (Amaxa). Briefly, 1×10^6 cells were suspended in 100 μl pre-warmed Nucleofector Solution Kit V containing 2 μg plasmids. After electroporation the cells were transferred immediately into pre-warmed complete McCoy's 5A medium and seeded in 6-well plates. Cells were harvested 48 h after transfection.
(A western blot detects proteins with antibodies after separation by electrophoresis.)

Another experiment deals with HCT116 cells. As to the kind of experiment: Matrigel invasion. The format is cell-based, human. The following applies: retrovirally infected HCT116 cells, 24 h. The procedure:
(§1) A, retrovirally infected HCT116 cells expressing EYFP, HIF-1α PAS-B, and mutant were assayed for Matrigel invasion. Images of cells on the membrane side were taken 24 h later. B, U-2 OS cells infected as above were assayed for anchorage-independent growth on soft agar. HIF-1α PAS-B expressed cells gave rise to formation of colonies 40 times more than others. HCT116 cells (known to grow on soft agar) were used as a positive control. Mock, uninfected cells.

A further experiment has as its system β-catenin. As to the kind of experiment: immunoblotting of epithelial marker in retrovirally infected U-2 OS cells. The format is cell-based. The procedure:
A, Cells as indicated were infected by retroviruses expressing EYFP, EYFP-PAS-B fusion, and EYFP-PAS-B mutant. […] B, U-2 OS and those infected with retroviruses as above were analyzed by immunoblotting individual protein expression as indicated.

Experiment [4] relates to U-2 OS cells. Put plainly: anchorage-independent growth on soft agar. Format: cell-based. The following applies: retrovirally infected U-2 OS cells. The procedure: as §1
The subject of experiment [5] is NBS1. As to the kind of experiment: NBS1 mRNA levels by real-time PCR in HCT116 cells. Format: cell-based, human. Particulars: siRNA, hypoxia 1% O2 16 h. As for the experimental part:
HCT116 TP53^+/+, HCT116 TP53^−/− cells (Koshiji et al., 2004), and U-2 OS were grown in McCoy's 5A medium (Invitrogen), and HeLa cells in DMEM. For hypoxic treatment, cells were incubated in a hypoxic chamber (Innova CO-48, New Brunswick Scientific) maintaining 1% O2 and 5% CO2. Recombinant adenovirus generation and infection were as previously described (Koshiji et al., 2004).
Total RNA extraction, reverse transcription, and quantitative PCR were performed essentially as described previously (Koshiji et al., 2005). Taqman Gene Expression Assay kits for NBS1, MRE11A, RAD50, MSH2, and ACTB were purchased from Applied Biosystems. All experiments were repeated three times in triplicates, and representative results were presented as means±standard errors.
(In general: Quantitative PCR measures a nucleic acid by following its amplification.)

In the next experiment the test system is HIF-2α. As to the kind of experiment: Western blot after siRNA transfection of HCT116 cells. The format is cell-based, human. The procedure:
(§2) Western Blot. Western blot analysis was carried out as described previously.
(§3) RNA Interference. Transfection with siRNA duplexes and siRNA sequence information were described previously (Koshiji et al. 2005). CHK1 siRNA was described previously (Zhao et al. 2002). Luciferase siRNA was used as negative control.

The test system of another experiment is HIF-1α. The experiment is described as above. Format: cell-based, human. The procedure: as §2, §3
In the next experiment the test system is CDC25A. Put plainly: CDC25A and PGK1 mRNA by real-time RT-PCR in siRNA-transfected HCT116 cells. The format is cell-based, human. Particulars: siRNA 24 h then hypoxia 16 h. The procedure:
Real-Time RT-PCR. Real-time RT-PCR was performed essentially as described previously (Koshiji et al. 2005). Primer and probe (Applied Biosystems) sequences were as follows: CDC25A, forward 5′-[…]-3′ (SEQ ID NO: 25), reverse 5′-[…]-3′ (SEQ ID NO: 26), probe 5′-FAM-[…]-MGB-3′ (SEQ ID NO: 27). PGK-1 (FAM-MGB probe) and ACTB (VIC-MGB probe) were detected with endogenous control reagents from Applied Biosystems. β-actin primers and probe were included into each reaction for normalization. All the experiments were repeated three times in triplicate, and representative results were presented in mean±standard error.
as §3

The test system of a further experiment is CDC25A promoter. As to the kind of experiment: CDC25A reporter (luciferase) assay in HCT116 cells. Format: cell-based, human. The following applies: hypoxia. The procedure:
Reporter Assay. Reporter assays were conducted as described previously (Huang et al. 2002). The Myc effect on the reporter was examined by cotransfection with 0.4 μg pMyc (Koshiji et al. 2004a) or as specified.

T1 sequence (G1SL61 1-788): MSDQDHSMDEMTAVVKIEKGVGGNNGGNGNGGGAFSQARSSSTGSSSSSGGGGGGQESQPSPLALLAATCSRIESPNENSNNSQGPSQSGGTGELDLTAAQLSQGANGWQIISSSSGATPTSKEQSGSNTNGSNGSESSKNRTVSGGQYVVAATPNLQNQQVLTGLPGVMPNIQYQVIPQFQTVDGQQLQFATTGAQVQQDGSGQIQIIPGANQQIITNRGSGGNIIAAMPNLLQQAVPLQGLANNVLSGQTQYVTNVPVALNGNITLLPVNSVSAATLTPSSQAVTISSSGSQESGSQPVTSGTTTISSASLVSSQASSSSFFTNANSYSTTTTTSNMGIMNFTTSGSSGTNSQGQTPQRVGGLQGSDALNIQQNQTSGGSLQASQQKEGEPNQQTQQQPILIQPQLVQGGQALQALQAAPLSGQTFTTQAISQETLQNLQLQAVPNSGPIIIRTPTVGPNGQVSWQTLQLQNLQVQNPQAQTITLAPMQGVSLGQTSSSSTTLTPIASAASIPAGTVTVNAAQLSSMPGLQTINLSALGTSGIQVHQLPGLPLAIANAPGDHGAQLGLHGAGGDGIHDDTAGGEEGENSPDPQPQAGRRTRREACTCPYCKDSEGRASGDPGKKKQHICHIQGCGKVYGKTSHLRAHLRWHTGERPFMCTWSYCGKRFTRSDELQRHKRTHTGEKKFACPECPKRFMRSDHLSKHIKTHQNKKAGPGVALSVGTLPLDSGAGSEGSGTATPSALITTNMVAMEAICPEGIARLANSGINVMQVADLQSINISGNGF

Regarding “PAS1B: HIF-1α PAS-B domain (codon 194-329)”, the “γ-H2AX foci colocalized with 53BP1” value with U-2 OS cells [1] was “significantly increased”. Besides, the tumor nodules formation result with U-2 OS cells [2] is listed as “formed tumor nodules”. The Sp1 binding entry with Sp1 was “sufficient for Sp1 interaction”. The NBS1 protein levels entry in the experiment with NBS1 [3] is “sufficient to eliminate NBS1 protein levels”. The invasiveness versus controls result with HCT116 cells was “much more invasive”. In addition, in the experiment with β-catenin, the β-catenin protein expression result is “marked decrease”. Moreover, the “formation of colonies on soft agar relative to others” value in the experiment with U-2 OS cells [4] is 40 times.
Take “5′-AACTGATGACCAGCAACTTGA-3′ [HIF1A siRNA]”: the “effect on NBS1 and MSH2 downregulation and PGK1 upregulation in hypoxic cells” value in the experiment with NBS1 [5] is “abrogated”. Besides, the HIF-2α levels entry with HIF-2α is “remained unaffected”. Moreover, the “decrease of HIF-1α protein levels” value with HIF-1α was above 80%. Further, in the experiment with CDC25A, the “effect on hypoxic CDC25A down-regulation and PGK1 up-regulation” value is “effectively blocked the CDC25A down-regulation”. Besides, the “hypoxic inhibition of CDC25A reporter expression” value in the experiment with CDC25A promoter is “abrogated”.
